Assay results: a melting point compilation (Tetko et al.; mined from patent text by program, amines drawn as free bases though some values may be those of a salt)

SMILES	melting point
O=C(O)[C@@]1(O)C[C@@H](O)[C@H](O)C2=C1CC(Cc1ccccc1)(Cc1ccccc1)S2	209 to 212 °C
CCN(CC)C(=O)c1ccc2ccccc2c1-c1ccc(F)cc1	103 to 104 °C
Cc1cc(O)nc(C=Cc2ccccc2)n1	217 to 219 °C
COC(=O)c1ccc(-c2n[nH]c3c2Cc2ccccc2-3)cc1	224 to 226 °C
CCCCCCNc1ccncc1	68 to 70 °C
C=Cc1cc2c(cc1Cl)C=C(C(=O)O)C(C(F)(F)F)O2 (stereo not given)	> 200 °C
O=C(O)CN(CC(=O)O)CC(=O)Nc1cc(C(F)(F)F)cc(C(F)(F)F)c1	201 °C
Cc1nc(-c2cc(C)c(OCCCc3cccnc3)c(C)c2)no1	46 to 49 °C
CNC1(C)CN(c2cc3c(cc2F)c(=O)c(C(=O)O)cn3C(C)(C)C)C1	251 to 253 °C
COc1ccc(C(C)=C2SCCCS2)cc1C(=O)O	130 to 132 °C
N#CC[C@H]1CCn2c(cc3ccccc32)C1	100 to 101 °C
NC(=O)c1c(C(=O)O)cnn1-c1ccc(Cl)cc1Cl	239 to 240 °C
Cc1[nH]c(C#N)c(C)c1-c1nc2ccc(C(=O)c3ccccc3)cc2[nH]1	159 to 163 °C
COc1cc2c(cc1O)CC(C)(C)N=C2	152 to 157 °C
COCCOc1ccc(C#CC2(O)CN3CCC2CC3)cc1Cl (stereo not given)	138 to 139 °C
CCOC(=O)CCc1ccc2c3ccccc3n(Cc3ccccc3)c2c1C	114 to 115 °C
CC(=O)Nc1ccc(NC(=O)NC23CC4CC(CC(C4)C2)C3)cn1	252 to 254 °C
Cc1ccc(-c2[nH]c(-c3ccccc3)nc2C(=O)Nc2nc3ccccc3s2)cc1	269 to 270 °C
CCOC(=O)c1ccc(N=C(Nc2ccc(C(=O)OCC)cc2)c2ccccc2OC)cc1	163 to 164 °C
O=C(O)Cc1ccc(Br)cc1[N+](=O)[O-]	166 to 168 °C
O=C(O)C=C=Cc1ccc(C2CCCCC2)cc1	126 to 129 °C
O=C(Oc1c(F)c(F)c(F)c(F)c1F)c1ccccc1O	111 to 112 °C
COc1ccc(N2CCN(c3ccc(-n4cnn(C(C)C(F)(F)F)c4=O)cc3)CC2)cc1 (stereo not given)	199 °C
CCn1c(C=O)cnc1[N+](=O)[O-]	38 to 40 °C

SMILES	melting point
CN1CCc2c(c3ccccc3n2CCc2n[nH]c(=S)n2C)C1	216 to 219 °C
CCCCCc1cc(-c2cc(=O)c3c(O)cc(O)cc3o2)ccc1OC	166 to 168 °C
COc1ccc2c(c1)c(CC(=O)N(O)C1CCCCC1)c(C)n2C(=O)c1ccc(Cl)cc1	208 to 210 °C
CCCCCc1c(C(C)C)nc(C(C)C)c(CO)c1-c1ccccc1C	81 to 83 °C
COc1cc2cc3ncc(C#N)c(Cl)c3cc2cc1OC	> 265 °C
CCOP(=O)(OCC)c1cc2nc(OCc3ccccc3)c(OCc3ccccc3)nc2c2c1CN(C)CC2	104 °C
Cc1cc(-c2sc(N3CCN(Cc4ccc(C(=O)N5CCCCC5)cc4)C3=O)nc2C)[nH]n1	182 to 183 °C
CCOC(=O)C1=C(N2CCCC2)N=C(C)C(C(=O)OC)C1c1cccc([N+](=O)[O-])c1 (stereo not given)	103 °C
O[C@H](CCl)CN=Cc1ccccc1	46 °C
COc1ccc2c3c(c(=O)oc2c1)CN(CCN1CC2CCCC(C2)C1)CC3	102 to 103 °C
CCOC(=O)N1CC[C@@H](O)[C@H](c2ccccc2)C1 (relative stereo)	49.5 to 58 °C
Cc1cccc(C)c1N(CC(=O)NCC(=O)O)C(=O)c1ccc(Cl)cc1	200 to 201 °C
Nc1ccc2c(c1)C(C(=O)Oc1ccccc1)CCC2 (stereo not given)	89 to 90 °C
COc1ccc(CNC2(Cc3ccccc3)CCC(=O)CC2)cc1	122 to 124 °C
COc1ccc(-c2nc(Sc3ccccc3)n(Cc3ccccc3)c2-c2ccc(OC)cc2)cc1	113 to 115 °C
O=C1NC(=O)C(Cc2cc(O)c(O)c([N+](=O)[O-])c2)C(=O)N1	263 to 266 °C
Cn1c(C(F)(F)F)cc(=O)n(-c2cc(OS(=O)(=O)c3ccc(Cl)cc3)c(Cl)cc2F)c1=O	152 to 154 °C
COc1ccccc1-n1c(=O)[nH]c2c(C(N)=O)nc(-c3ccc4[nH]c(SC)nc4c3)nc21	244 to 245 °C
CNS(=O)(=O)c1ccccc1Nc1nc(Nc2ccc3c(c2)CCCC(=O)N3CC(=O)O)ncc1Cl	192 to 195 °C
Cn1cncc1C(c1ccc(Cl)cc1)c1ccc2c(c1)C(c1cccc(Cl)c1)SCC(=O)N2 (stereo not given)	187 °C
O=C(NCCCCCCCCF)N1CCC(Nc2ccc(CCNC[C@H](O)COc3ccc(O)cc3)cc2)CC1	78 to 80 °C
CCCOc1ccc(-c2ccc(=S)[nH]n2)cc1OC	170 °C
Cc1ccc(C(=O)N(C)C2CCCCC2)cc1	70 to 71 °C
CCCCOCCOc1ccc(-c2ccc3c(c2)C=C(C(=O)O)CCN3CC2CC2)cc1	152 to 155 °C

SMILES	melting point
Cc1c(CO)cc(-c2ccc(S(C)(=O)=O)cc2)n1-c1ccc(F)cc1	140 to 142 °C
NC[C@@H]1CCc2cc(S(=O)(=O)Nc3ccc(-n4ccn(CCCC5CCCCC5)c4=O)cc3)ccc2O1	108 to 110 °C
COc1cccc(-c2cc(-c3ccc(-c4c(Cc5ccccc5)sc5ccccc45)cc3)cc(Br)c2OCC(=O)O)c1	88 to 90 °C
COC(=O)C1=C(C)NC(C)=C(C(=O)OCCN2CCN(C(c3ccccc3)c3ccccc3)CC2)C1c1ccccc1Cl (stereo not given)	81 to 83 °C
C/C=C(\c1ccccc1)c1cc2cc(OC)ccc2[nH]1	128 to 130 °C
CNC(=O)c1c(Cl)ccc(Cl)c1OC	172 to 175 °C
COc1ccc(N2CCOCC2)c2sc(NC(=O)N(C)[C@H]3CC[C@H](O)CC3)nc12	158 to 162 °C
COC(=O)C(C(=O)OC)c1ccc([N+](=O)[O-])cc1C(=O)O	163 to 164 °C
Cc1[nH]cnc1CSCCNC(=O)NCCCCN(C)CCC(c1ccc(Cl)cc1)c1ccccn1 (stereo not given)	97 to 98 °C
O=c1c(Cc2cccnc2)cn2c3c(cc(Cl)cc13)Oc1cc(Cl)ccc1-2	170 to 171 °C
COc1cc(CCC2(CCc3ccc(O)c(OC)c3)CC(O)=C(Sc3cc(C)c(OCCO)cc3C(C)(C)C)C(=O)O2)ccc1O	76 to 82 °C
OC(CNc1nnc2n1CCCC2)COc1cccc(CN2CCCCC2)c1 (stereo not given)	141 to 142 °C
CCCCc1oc2ccccc2c1C(=O)N(C)Cc1ccc(-c2ccc(OCC(=O)O)c(Br)c2)cc1	72 to 78 °C
O=C1CC(c2cccc(-n3cnnc3)c2)=Nc2ccc(-c3ccccc3F)cc2N1	198 °C
CC(C)(C)C(O)C(Oc1ccccc1)n1ccnc1 (stereo not given)	99 to 105 °C
O=C(c1ccccc1CBr)c1cc(F)ccc1CBr	118 to 119 °C
CC=C1c2ccccc2CC(=NO)c2ccccc21	128 to 131 °C
Clc1ccc(-c2cncn3cnnc23)cc1	193 to 195 °C
COc1ccc(-c2[nH]nc(C(=O)Oc3ccccc3)c2N)cc1	286 to 291 °C
O=C(CN1CCN(C(=O)OCc2ccccc2)CC1)Nc1ccccn1	78 to 80 °C
CCc1nc2cc(/C=C/C(=O)NO)ccc2c(=O)n1CCc1ccc(OC)cc1	215 to 217 °C
COC(=O)c1ccc2oc(=O)n(Cc3cccc(-c4ncc(OCCCN(C)C)cn4)c3)c2c1	125 °C
